Results: publication PMC11304236, “A Novel Drug Candidate for Sepsis Targeting Heparanase by Inhibiting Cytokine Storm” (Advanced Science, 2024)

Key:
lung tissue glycocalyx = assay: Cell surface glycocalyx in lung tissue of LPS-induced septic mice (WGA-FITC, lanthanum nitrate TEM); assay type: in vivo, mouse
Description: (§1) Lungs were harvested from LPS‐induced and CLP‐induced sepsis model mice, and frozen sections were prepared. HUVECs and RAW264.7 macrophages were incubated with CV122 for 3 h, and TNF‐α (20 ng mL^−1) and LPS (5 µg mL^−1) were used to stimulate cells for 1 h. Lung tissue, HUVECs, and RAW264.7 macrophages were fixed with 4% paraformaldehyde for 10 min before permeabilization with 0.5% Triton X‐100 for 10 min. The membrane was sealed with 4% skimmed milk powder and incubated at room temperature for 50 min. Primary antibodies were rabbit anti‐heparanase polyclonal antibodies overnight at 4 °C. The diluent of the secondary antibody FITC‐WGA‐lectin was kept at room temperature and protected from light for 1 h. Nuclei were stained with DAPI. After 120 s, images were acquired with a confocal microscope (LSM 800, Zeiss, Germany).
The endothelial glycocalyx was detected by electron microscopy. Mice were dissected and a needle was inserted into the left ventricle of the heart and perfused with lanthanum aldehyde, a solution consisting of 2% glutaraldehyde, 2% sucrose, 0.1 M sodium […] buffer (pH 7.3), and 2% lanthanum nitrate. Lanthanum was a trivalent cation that binds polysaccharide‐protein complexes with negatively charged glycoprotein parts.^[ [46] ^] The organs were cut into 1 mm^3 pieces and then the samples were fixed in lanthanide aldehyde fixative. […]

HPA = HPA expression in tissues of LPS-induced septic mice (IHC, immunofluorescence, immunoblotting); assay type: in vivo, mouse; settings: 24 h after LPS injection
Description: as §1
The lung, kidney, and liver tissues of mice were fixed in paraformaldehyde. Sections underwent endogenous peroxidase quenching and antigen retrieval followed by incubation with primary antibodies or isotype‐matched controls. […]
CV122 (50 µM) was incubated with HUVECs and RAW264.7 cells for 3 h, and LPS (5 µg mL^−1) and TNF‐α (20 ng mL^−1) were incubated for 1 h. […] The BCA method was used to quantify protein. […] Blots were developed with a chemiluminescent HRP substrate, and the protein bands were detected with a chemiluminescence imager (MiniChemi610).

TNF-α, IL-6, IL-1β = assay: Cytokine ELISA in serum and organs of LPS-induced septic mice; assay type: in vivo, mouse
Description: For LPS‐induced sepsis model experiments, twenty male C57BL/6J mice were randomly divided into four groups (n = 5 in each group). Mice in group 1 were injected with 0.9% NaCl, while mice in groups 2–4 were injected intraperitoneally with LPS (20 mg kg^−1). After 30 min, mice in group 3 were injected with 40 mg kg^−1 CV122 and mice in group 4 were injected with 40 mg kg^−1 Suramin. After 3 h, blood was taken and the lungs, liver, spleen, kidney heart, and brain were taken. For CLP experiments, the mice were euthanized 24 h after the establishment of the sepsis model. Blood samples were collected from the eyeballs of mice, the lungs were taken. These organs were ground at 0.1 g mL^−1 in PBS, centrifuged and the supernatant collected. Serum and organ tissue supernatants were used to detect cytokine levels using the mouse TNF‐α, IL‐6, IL‐1β ELISA MAXTM Deluxe Set.

HUVECs = assay: Cell survival assay (CCK-8) in HUVECs; assay type: cell-based, human; settings: 50 to 200 µM

COC1OC(COS(=O)(=O)O)C(OC2OC(C(=O)O)C(OC3OC(COS(=O)(=O)O)C(OC4OC(C(=O)O)C(OC5OC(COS(=O)(=O)O)C(O)C(O)C5NS(=O)(=O)O)C(OS(=O)(=O)O)C4O)C(OS(=O)(=O)O)C3NS(=O)(=O)O)C(O)C2OS(=O)(=O)O)C(O)C1NS(=O)(=O)O (stereo not shown) [CV122]
cell surface glycocalyx in lung tissue by WGA-FITC (lung tissue glycocalyx): integrity of the glycocalyx was rescued | lanthanum nitrate staining of lung vascular endothelial glycocalyx (TEM) (lung tissue glycocalyx): significantly restored lanthanum nitrate staining | HPA overexpression in the lungs (HPA): significantly reduced the HPA overexpression | TNF-α, IL-6 and IL-1β levels in serum and lungs (TNF-α, IL-6, IL-1β; 40 mg kg−1, 30 min after LPS 20 mg kg−1 i.p., 3 h after LPS, vs LPS group): significantly suppressed | TNF-α, IL-6 and IL-1β in tissue extracts of brains, hearts, livers, kidneys and spleens (TNF-α, IL-6, IL-1β; 40 mg kg−1, 3 h after LPS): significantly inhibited the secretion of proinflammatory cytokines in these organs to a greater extent than Suramin | TNF-α levels in serum (TNF-α, IL-6, IL-1β; candidate screening in LPS-induced septic mouse model (Figure 1C,D)): significantly decreasing | effect on survival of HUVECs (HUVECs): no significant inhibitory effect
